{"source": "paper PMC6389506", "about": "(Cell chemical biology, 2017)", "key": {"CDK9 [1]": {"molecular_target": "T1, CDK9 (Homo sapiens, UniProt P50750)", "T1 sequence (P50750 whole entry)": "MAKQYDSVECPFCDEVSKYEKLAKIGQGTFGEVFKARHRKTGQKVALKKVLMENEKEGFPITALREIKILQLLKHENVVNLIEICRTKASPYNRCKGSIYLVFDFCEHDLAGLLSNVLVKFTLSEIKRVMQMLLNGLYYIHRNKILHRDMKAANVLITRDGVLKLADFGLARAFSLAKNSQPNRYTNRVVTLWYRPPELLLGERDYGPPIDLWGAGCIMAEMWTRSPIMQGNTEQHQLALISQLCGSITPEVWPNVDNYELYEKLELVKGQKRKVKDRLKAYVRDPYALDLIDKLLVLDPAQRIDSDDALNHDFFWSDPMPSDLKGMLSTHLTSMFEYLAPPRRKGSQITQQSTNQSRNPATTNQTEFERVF", "test": "KINOMEscan profiling / biochemical kinase assay"}, "CDK12": {"molecular_target": "CDK12 (Homo sapiens, UniProt Q9NYV4)", "sequence (Q9NYV4 whole entry)": "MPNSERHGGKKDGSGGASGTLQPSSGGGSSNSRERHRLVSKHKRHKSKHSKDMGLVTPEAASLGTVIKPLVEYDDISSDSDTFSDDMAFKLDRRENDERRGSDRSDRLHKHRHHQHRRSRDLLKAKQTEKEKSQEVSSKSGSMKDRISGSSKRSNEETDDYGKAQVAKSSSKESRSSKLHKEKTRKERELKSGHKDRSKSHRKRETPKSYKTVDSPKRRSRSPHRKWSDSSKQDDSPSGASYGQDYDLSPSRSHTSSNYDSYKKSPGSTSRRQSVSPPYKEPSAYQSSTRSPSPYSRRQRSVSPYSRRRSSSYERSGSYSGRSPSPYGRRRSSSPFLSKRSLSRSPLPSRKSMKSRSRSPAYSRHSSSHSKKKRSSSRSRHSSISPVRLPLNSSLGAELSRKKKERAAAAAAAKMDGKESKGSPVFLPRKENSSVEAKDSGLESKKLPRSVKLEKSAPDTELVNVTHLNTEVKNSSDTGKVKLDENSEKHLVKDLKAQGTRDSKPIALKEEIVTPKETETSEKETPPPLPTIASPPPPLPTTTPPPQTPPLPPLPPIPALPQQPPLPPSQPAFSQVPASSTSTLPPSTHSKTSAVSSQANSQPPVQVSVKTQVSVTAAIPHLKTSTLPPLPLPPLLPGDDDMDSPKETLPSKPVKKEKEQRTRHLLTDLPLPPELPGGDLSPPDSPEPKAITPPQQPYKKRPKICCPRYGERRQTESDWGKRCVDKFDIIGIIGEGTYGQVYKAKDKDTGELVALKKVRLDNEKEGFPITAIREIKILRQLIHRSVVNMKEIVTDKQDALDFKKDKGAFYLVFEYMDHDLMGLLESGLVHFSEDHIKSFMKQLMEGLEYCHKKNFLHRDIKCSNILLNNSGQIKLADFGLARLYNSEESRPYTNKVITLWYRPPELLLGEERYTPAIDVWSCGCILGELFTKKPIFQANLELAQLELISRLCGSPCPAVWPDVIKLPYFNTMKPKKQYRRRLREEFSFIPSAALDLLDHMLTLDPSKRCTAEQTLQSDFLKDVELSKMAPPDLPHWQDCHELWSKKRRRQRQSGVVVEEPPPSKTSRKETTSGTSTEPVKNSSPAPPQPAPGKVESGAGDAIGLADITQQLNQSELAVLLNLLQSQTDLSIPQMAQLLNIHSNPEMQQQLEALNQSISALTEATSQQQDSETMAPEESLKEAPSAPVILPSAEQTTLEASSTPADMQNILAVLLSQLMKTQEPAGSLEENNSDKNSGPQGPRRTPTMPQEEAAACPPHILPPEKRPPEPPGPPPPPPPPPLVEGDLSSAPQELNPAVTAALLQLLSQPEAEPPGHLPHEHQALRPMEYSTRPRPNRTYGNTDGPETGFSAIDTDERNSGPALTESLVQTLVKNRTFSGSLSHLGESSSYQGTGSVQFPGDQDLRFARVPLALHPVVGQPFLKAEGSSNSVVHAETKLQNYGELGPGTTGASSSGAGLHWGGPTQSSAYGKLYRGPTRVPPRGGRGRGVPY", "sequence (O75909 whole entry partner)": "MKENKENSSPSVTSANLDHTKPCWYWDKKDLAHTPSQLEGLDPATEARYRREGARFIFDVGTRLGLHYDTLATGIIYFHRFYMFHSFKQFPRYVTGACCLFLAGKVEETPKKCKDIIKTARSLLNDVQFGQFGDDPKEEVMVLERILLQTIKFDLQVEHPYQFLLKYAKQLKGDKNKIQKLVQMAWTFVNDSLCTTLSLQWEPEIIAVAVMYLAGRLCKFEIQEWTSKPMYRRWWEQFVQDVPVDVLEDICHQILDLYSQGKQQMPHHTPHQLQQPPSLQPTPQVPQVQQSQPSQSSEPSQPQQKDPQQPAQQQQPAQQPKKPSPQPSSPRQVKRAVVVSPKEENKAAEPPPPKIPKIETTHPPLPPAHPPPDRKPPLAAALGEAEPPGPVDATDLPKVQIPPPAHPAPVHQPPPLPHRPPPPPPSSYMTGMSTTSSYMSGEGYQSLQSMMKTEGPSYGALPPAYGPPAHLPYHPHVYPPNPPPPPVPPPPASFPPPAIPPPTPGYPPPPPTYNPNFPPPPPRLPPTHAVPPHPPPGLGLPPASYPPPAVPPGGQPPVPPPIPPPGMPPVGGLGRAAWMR", "test": "CE-MS intact mass shift and MS/MS of the labeled peptide", "type": "cell-based"}, "CDK7": {"molecular_target": "CDK7 (Homo sapiens, UniProt P50613)", "sequence (P50613 2-346)": "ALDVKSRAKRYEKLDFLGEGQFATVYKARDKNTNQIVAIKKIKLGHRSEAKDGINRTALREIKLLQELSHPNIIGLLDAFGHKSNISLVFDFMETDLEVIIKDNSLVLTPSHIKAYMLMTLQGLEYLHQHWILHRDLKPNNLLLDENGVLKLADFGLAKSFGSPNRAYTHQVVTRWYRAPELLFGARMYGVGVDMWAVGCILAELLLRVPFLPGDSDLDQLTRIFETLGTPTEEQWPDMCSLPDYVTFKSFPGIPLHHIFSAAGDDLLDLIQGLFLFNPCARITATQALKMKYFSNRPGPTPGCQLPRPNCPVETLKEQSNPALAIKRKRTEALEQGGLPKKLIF", "sequence (P51946 whole entry partner)": "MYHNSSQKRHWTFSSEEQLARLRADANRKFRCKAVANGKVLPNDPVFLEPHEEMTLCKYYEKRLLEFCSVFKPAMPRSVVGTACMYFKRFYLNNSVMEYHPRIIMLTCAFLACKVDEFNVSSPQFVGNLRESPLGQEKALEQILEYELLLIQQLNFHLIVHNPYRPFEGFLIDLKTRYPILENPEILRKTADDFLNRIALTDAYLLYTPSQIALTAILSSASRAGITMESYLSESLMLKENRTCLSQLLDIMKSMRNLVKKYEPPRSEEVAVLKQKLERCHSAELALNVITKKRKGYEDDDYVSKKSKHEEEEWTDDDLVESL", "test": "biochemical kinase inhibition"}, "CDK2": {"molecular_target": "CDK2 (Homo sapiens, UniProt P24941)", "test": "biochemical kinase inhibition"}, "CDK9 [2]": {"molecular_target": "T1, CDK9", "test": "biochemical kinase inhibition"}}, "data": [{"smiles": "C=CC(=O)Nc1cccc(Nc2cc(N3CCCC[C@H]3CCO)nc3c(CC)cnn23)c1", "note": "[E9, (S)-N-(3-(3-Ethyl-5-(2-(2-Hydroxyethyl)piperidin-1-yl)pyrazolo[1,5-a]pyrimidin-7-ylamino)phenyl)acrylamide]", "values": [{"measurement": "KINOMEscan profiling / biochemical kinase assay", "setting": "CDK9 [1]", "result": "E9 still retained fairly strong biochemical activity against CDK9"}, {"measurement": "CE-MS intact mass shift and MS/MS of the labeled peptide; bio-THZ1 competition p", "setting": "CDK12", "result": "< 25", "unit": "nM"}]}, {"smiles": "CCC(=O)Nc1cccc(Nc2cc(N3CCCC[C@H]3CCO)nc3c(CC)cnn23)c1", "note": "[E9-R, (S)-N-(3-((3-Ethyl-5-(2-(2-Hydroxyethyl)piperidin-1-yl)pyrazolo[1,5-a]pyrimidin-7-yl)amino)phenyl)propionamide]", "values": [{"measurement": "biochemical kinase inhibition", "setting": "CDK7", "result": "E9-R exhibited improved biochemical inhibition of CDK2, CDK7, and CDK9 compared with E9"}, {"measurement": "biochemical kinase inhibition", "setting": "CDK2", "result": "E9-R exhibited improved biochemical inhibition of CDK2, CDK7, and CDK9 compared with E9"}, {"measurement": "biochemical kinase inhibition", "setting": "CDK9 [2]", "result": "E9-R exhibited improved biochemical inhibition of CDK2, CDK7, and CDK9 compared with E9"}]}]}
